Measured values as given in paper PMC6858373 (Scientific Reports, 2019).
Like-named read-outs stand apart in the source and are kept apart here.

Columns and labels:
[1] = biological target: full-length P. pyralis luciferase (Photinus pyralis, UniProt P08659, K549A/L550V/N119G/N50D/S548I); type: cell-based
[2] = biological target: T1, FGF14:Nav1.6 C-tail complex (Homo sapiens, UniProt Q92915+Q9UQD0); assay: Split-luciferase complementation assay (LCA) in Clone V double stable HEK293 cells; type: cell-based; details: for IC50: estimated, 8-point dose response 0.25-30 µM, n = 4 per concentration, library compounds, read-out: IC50
T1 construct: polymerase chain reaction (PCR) amplification of the FGF14 open reading frame (nt 1–855); C-terminal fragment of Nav1.6 (amino acids 1763–1976) fused with CD4ΔC-tail (amino acids 1–395); expressed in transfected cells

[3] = tested on: Clone V cells
[4] = CC_NCI screening, normalized to on-plate 0.3% DMSO controls
[5] = 30 µM, 384-well, average of primary screening (n = 2), vs on-plate 0.3% DMSO
[6] = CC_NCI screening, biological replicate Set 1, normalized to on-plate 0.3% DMSO controls
[7] = CC_NCI screening, biological replicate Set 1, normalized to on-plate 0.3% DMSO controls (n=16 per plate)
[8] = average of Set 1 and Set 2, normalized to 0.3% DMSO controls
[9] = CC_NCI screening, biological replicate Set 2, normalized to on-plate 0.3% DMSO controls
[10] = CC_NCI screening, biological replicate Set 2, normalized to on-plate 0.3% DMSO controls (n=16 per plate)
[11] = CC_NCI screening, full-length luciferase counter-screen luminescence, normalized to on-plate 0.3% DMSO controls
[12] = CC_NCI screening, full-length luciferase counter-screen, normalized to on-plate 0.3% DMSO controls
[13] = CC_NCI screening, LCA luminescence, biological replicate Set 1, normalized to on-plate 0.3% DMSO controls (n=16 per plate)
[14] = CC_NCI screening, LCA luminescence, biological replicate Set 2, normalized to on-plate 0.3% DMSO controls (n=16 per plate)
[15] = CC_NCI screening, LCA, biological replicate Set 1, normalized to on-plate 0.3% DMSO controls
[16] = CC_NCI screening, LCA, biological replicate Set 2, normalized to on-plate 0.3% DMSO controls
[17] = CC_NCI screening, average of Set 1 and Set 2, normalized to 0.3% DMSO controls

T1 sequence (Q92915 1-252 isoform Q92915-2): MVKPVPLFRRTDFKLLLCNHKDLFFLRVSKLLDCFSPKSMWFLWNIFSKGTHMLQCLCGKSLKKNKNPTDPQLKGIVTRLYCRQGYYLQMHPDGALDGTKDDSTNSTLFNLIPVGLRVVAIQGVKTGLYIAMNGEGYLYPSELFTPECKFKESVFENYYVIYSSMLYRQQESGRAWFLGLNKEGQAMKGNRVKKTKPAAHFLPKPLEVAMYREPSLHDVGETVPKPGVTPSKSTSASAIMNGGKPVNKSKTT
T1 sequence (Q9UQD0 1763-1976 limits assumed): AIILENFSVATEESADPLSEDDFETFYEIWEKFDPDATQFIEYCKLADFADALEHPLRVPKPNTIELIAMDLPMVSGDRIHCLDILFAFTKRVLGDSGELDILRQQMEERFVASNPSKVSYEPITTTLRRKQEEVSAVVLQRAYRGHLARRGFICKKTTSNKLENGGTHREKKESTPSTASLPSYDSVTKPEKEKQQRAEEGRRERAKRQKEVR
Sequence of full-length P. pyralis luciferase (P08659 whole entry N50D/N119G/S548I/K549A/L550V, looked up): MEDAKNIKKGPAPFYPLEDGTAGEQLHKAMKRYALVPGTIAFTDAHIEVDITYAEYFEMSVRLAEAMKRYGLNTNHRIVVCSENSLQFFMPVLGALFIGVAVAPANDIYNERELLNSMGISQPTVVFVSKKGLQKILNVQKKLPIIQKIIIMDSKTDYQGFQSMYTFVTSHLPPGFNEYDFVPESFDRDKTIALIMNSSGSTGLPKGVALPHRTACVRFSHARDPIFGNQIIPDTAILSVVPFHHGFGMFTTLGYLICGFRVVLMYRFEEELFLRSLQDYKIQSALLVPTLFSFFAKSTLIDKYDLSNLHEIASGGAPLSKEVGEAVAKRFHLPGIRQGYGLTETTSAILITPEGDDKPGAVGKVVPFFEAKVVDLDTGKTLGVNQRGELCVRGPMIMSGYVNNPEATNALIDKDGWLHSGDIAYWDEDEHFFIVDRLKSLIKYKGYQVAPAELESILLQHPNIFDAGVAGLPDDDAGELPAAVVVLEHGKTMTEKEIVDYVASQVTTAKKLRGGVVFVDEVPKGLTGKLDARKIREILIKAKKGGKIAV

Row | Structure (SMILES) | Luciferase Assay % Lum (full-length luciferase counter-screen) [1, 4] [%] | Luciferase Assay Z-score (full-length luciferase counter-screen) [1, 4] | Split Luciferase Assay Z-score Set 1 [2, 6] | Split Luciferase Assay % Lum Set 1 [2, 7] [%] | Split Luciferase Assay %Lum Avg [2, 8] [%] | Toxicity Assay % Fluor (CTB cell viability fluorescence) [3] [%] | Toxicity Assay Z-score (CTB cell viability) [3] | Split Luciferase Assay % Lum Set 1 [2, 13] [%] | Split Luciferase Assay %Lum Set 2 [2, 14] [%] | Split Luciferase Assay Z-score Set 1 [2, 15] | Split Luciferase Assay Z-score Set 2 [2, 16] | Split Luciferase Assay %Lum Avg [2, 17] [%] | Toxicity Assay % Fluor ([3]; human, 16 h, 30 µM) [%] | Toxicity Assay Z-score ([3]; human, 16 h, 30 µM) | Luciferase Assay % Lum [1] [%] | Luciferase Assay Z-score [1] | further results
1 | Cc1ccc([N+](=O)[O-])cc1S(=O)(=O)N(C)/N=C/c1cnc2ccc(Br)cn12 [PIK 75, reference compound] | 87.68 | -1.58 | -6.21 | 23.16 | 38.11 | 101.60 | 0.22 | – | – | – | – | – | – | – | – | – | Z-score (LCA primary screening) [2, 5]: −5.01; IMin (% Luminescence) ([2]; antagonists, Clone V cells, 384-well, normalized to DMSO): 38.11 % Luminescence; IC50 [2]: 1.63 µM
2 | COc1ccc2c(c1OC)N=C(NC(=O)c1cccnc1)N1CCN=C21 [PIK 90] | 102.65 | 0.34 | -0.15 | 98.17 | 92.26 | 101.53 | 0.21 | – | – | – | – | – | – | – | – | – | Split Luciferase Assay Z-score Set 2 [2, 9]: -1.11; Split Luciferase Assay %Lum Set 2 [2, 10]: 86.35%
3 | CO[C@@H]1[C@H](N(C)C(=O)c2ccccc2)C[C@H]2O[C@]1(C)n1c3ccccc3c3c4c(c5c6ccccc6n2c5c31)C(=O)NC4 [PKC412] | – | – | – | – | – | – | – | 54.68 | 67.62 | -3.66 | -2.63 | 61.15 | 83.94 | -2.25 | – | – | Luciferase Assay % Lum [1, 11]: 89.50%; Luciferase Assay Z-score [1, 12]: -1.34
4 | CCCS(=O)(=O)Nc1ccc(F)c(C(=O)c2c[nH]c3ncc(Cl)cc23)c1F [PLX4720, reference compound] | – | – | – | – | – | – | – | – | – | – | – | – | 93.90 | -0.85 | 79.36 | -2.64 | IMin (% Luminescence) [2]: 36.71 % Luminescence; Split Luciferase Assay % Lum Set 1 [2]: 30.77%; Split Luciferase Assay %Lum Avg [2]: 36.71%; Split Luciferase Assay %Lum Set 2 [2]: 42.65%; Split Luciferase Assay Z-score Set 1 [2]: -5.60; Split Luciferase Assay Z-score Set 2 [2]: -4.67; Z-score (LCA primary screening) [2]: −5.13; IC50 [2]: 2.14 µM
5 | Nc1ncnc2c1c(-c1cnc3[nH]ccc3c1)nn2C1CCCC1 [PP121, reference compound] | 124.27 | 3.11 | -4.89 | 39.46 | 48.86 | 111.23 | 1.57 | – | – | – | – | – | – | – | – | – | Z-score, full-length luciferase assay ([1]; 30 µM, 384-well plates, vs on-plate 0.3% DMSO): 3.11; Z-score (LCA primary screening) [2, 5]: −4.14; Split Luciferase Assay Z-score Set 2 [2, 9]: -3.40; Split Luciferase Assay %Lum Set 2 [2, 10]: 58.26%
6 | Cc1ccc(Nc2nccc(N(C)c3ccc4c(C)n(C)nc4c3)n2)cc1S(N)(=O)=O.Cl [Pazopanib hydrochloride] | – | – | – | – | – | – | – | 13.37 | 28.09 | -7.00 | -5.85 | 20.73 | – | – | – | – | Luciferase Assay % Lum [1, 11]: 59.40%; Luciferase Assay Z-score [1, 12]: -5.20; Toxicity Assay % Fluor [3]: 92.21%; Toxicity Assay Z-score [3]: -1.09
7 | OC[C@H]1O[C@@H](n2cnc3c2NC=NC[C@H]3O)C[C@@H]1O [Pentostatin] | – | – | – | – | – | – | – | – | – | 2.75 | 3.80 | – | 86.56 | -1.88 | 97.96 | -0.26 | Split Luciferase Assay % Lum Set 1 [2]: 134.04%; Split Luciferase Assay %Lum Avg [2]: 140.36%; Split Luciferase Assay %Lum Set 2 [2]: 146.68%
8 | O=C(CCBr)N1CCN(C(=O)CCBr)CC1 [Pipobroman] | – | – | – | – | – | – | – | 125.34 | 121.72 | 2.05 | 1.77 | 123.53 | 98.07 | -0.27 | 102.03 | 0.26 | –
